Test results taken from ChEMBL document CHEMBL5230157, “The natural anthraquinone dye purpurin exerts antibacterial activity by perturbing the FtsZ assembly” (Bioorg Med Chem, 2021).
In brackets after ≈: the same amount, converted by molar mass. Activity calls are given as the source filed them. The calls are words filed in the database; no cut-off is given here.

Legend:
[1] = molecular target: T1, Cell division protein FtsZ (Escherichia coli K-12) (UniProt P0A9A6); assay: Inhibition of Escherichia coli BL21 FtsZ assessed as inhibition of KCl-induced GTPase activity at 5 uM preincubated for 10 mins followed by KCl stimulation and measured after 10 mins by malachite green ammonium molybdate dye based spectroscopic analysis; settings: time 20.0 min
T1 sequence (whole entry): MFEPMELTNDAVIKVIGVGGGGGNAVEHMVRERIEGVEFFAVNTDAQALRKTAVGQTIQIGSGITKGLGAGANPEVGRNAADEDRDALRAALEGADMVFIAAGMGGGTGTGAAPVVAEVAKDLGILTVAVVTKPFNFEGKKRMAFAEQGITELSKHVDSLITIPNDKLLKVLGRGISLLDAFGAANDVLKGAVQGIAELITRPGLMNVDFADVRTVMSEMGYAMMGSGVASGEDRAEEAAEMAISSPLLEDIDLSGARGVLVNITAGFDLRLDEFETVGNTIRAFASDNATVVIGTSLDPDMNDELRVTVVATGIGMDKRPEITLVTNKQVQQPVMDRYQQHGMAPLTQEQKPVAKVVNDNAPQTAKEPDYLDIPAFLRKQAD

[2] = molecular target: T1, Cell division protein FtsZ (Escherichia coli K-12); assay: Inhibition of KCl-induced Escherichia coli BL21 FtsZ polymerization at 20 uM incubate for 10 min followed by KCl stimulation by spectrofluorimeter based light-scattering assay
[3] = test system: Bacillus subtilis; assay: Antibacterial activity against Bacillus subtilis 168 assessed as bacterial growth inhibition at 5 uM by spectrophotometric method; format: functional; settings: read-out: GI
[4] = test system: HeLa; assay: Antiproliferative activity against human HeLa cells assessed as inhibition of cell proliferation incubated for 24 hrs by sulfo-rhodamine B assay; format: functional, cell-based
[5] = molecular target: T1, Cell division protein FtsZ (Escherichia coli K-12); assay: Binding affinity to Escherichia coli BL21 FtsZ assessed as hydrophobic probe ANS-FtsZ complex fluorescence quenching at 5 uM for 30 mins by fluorescence analysis
[6] = molecular target: T2, Cell division protein FtsZ (Bacillus subtilis) (UniProt A5Z1V5); assay: Binding affinity to Bacillus subtilis FtsZ assessed as intrinsic tryptophan quenching incubated for 30 mins by fluorescence analysis
T2 sequence (whole entry): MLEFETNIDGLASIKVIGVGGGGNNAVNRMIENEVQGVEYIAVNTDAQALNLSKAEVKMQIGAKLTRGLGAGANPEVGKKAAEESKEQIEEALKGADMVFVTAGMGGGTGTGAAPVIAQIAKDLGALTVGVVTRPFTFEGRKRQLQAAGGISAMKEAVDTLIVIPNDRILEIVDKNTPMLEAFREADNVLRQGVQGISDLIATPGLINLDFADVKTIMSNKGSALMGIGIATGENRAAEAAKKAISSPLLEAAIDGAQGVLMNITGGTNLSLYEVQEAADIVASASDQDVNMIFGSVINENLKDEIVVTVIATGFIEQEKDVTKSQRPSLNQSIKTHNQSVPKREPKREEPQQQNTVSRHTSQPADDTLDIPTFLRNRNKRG

[7] = molecular target: T1, Cell division protein FtsZ (Escherichia coli K-12); assay: Inhibition of Escherichia coli BL21 FtsZ assessed as inhibition of KCl-induced GTPase activity at 80 uM preincubated for 10 mins followed by KCl stimulation and measured after 10 mins by malachite green ammonium molybdate dye based spectroscopic analysis
[8] = test system: HeLa; assay: Antiproliferative activity against human HeLa cells assessed as inhibition of cell proliferation at 10 uM incubated for 24 hrs by sulforhodamine B assay; format: functional; design: scale not given: the % may be the effect or the level left
[9] = test system: Bacillus subtilis; assay: Antibacterial activity against Bacillus subtilis 168 assessed as bacterial growth inhibition by spectrophotometric method; format: functional, organism-based
[10] = test system: Bacillus subtilis; assay: Antibacterial activity against Bacillus subtilis 168 assessed as increase in average cell length at 7 uM incubated for 4 hrs in 69% of bacterial cells by fluorescent microscopy; format: functional
[11] = molecular target: T1, Cell division protein FtsZ (Escherichia coli K-12); assay: Binding affinity to Escherichia coli BL21 FtsZ assessed as hydrophobic probe ANS-FtsZ complex fluorescence quenching at 10 uM for 30 mins by fluorescence analysis
[12] = test system: Escherichia coli; assay: Antibacterial activity against Escherichia coli XL1 assessed as bacterial growth inhibition at 20 uM by spectrophotometric method; format: functional; settings: read-out: GI
[13] = test system: Bacillus subtilis; assay: Antibacterial activity against Bacillus subtilis 168 assessed as increase in average cell length at 7 uM incubated for 4 hrs in 9% of bacterial cells by fluorescent microscopy; format: functional
[14] = test system: Bacillus subtilis; assay: Antibacterial activity against Bacillus subtilis 168 assessed as minimum inhibitory concentration by spectrophotometric method; format: functional
[15] = molecular target: T3, Tubulin (Homo sapiens) (UniProt P68371+Q9H4B7+P0DPH7+P68366+Q13509+Q71U36+P04350+Q3ZCM7+P07437+P68363+Q9BQE3+Q6PEY2+Q13885+Q9BVA1+Q9BUF5); assay: Inhibition of tubulin polymerization […] assessed as effect on MAP rich- tubulin polymer mass at 20 to 80 uM preincubated for 10 mins followed by GTP addition and measured after 1 hrs by Bradford assay; settings: dose 20-80 µM, time 70.0 min
[16] = molecular target: T1, Cell division protein FtsZ (Escherichia coli K-12); assay: Inhibition of KCl-induced Escherichia coli BL21 FtsZ polymerization at 40 uM incubate for 10 min followed by KCl stimulation by spectrofluorimeter based light-scattering assay
[17] = molecular target: T1, Cell division protein FtsZ (Escherichia coli K-12); assay: Binding affinity to Escherichia coli BL21 FtsZ assessed as hydrophobic probe ANS-FtsZ complex fluorescence quenching at 20 uM for 30 mins by fluorescence analysis
[18] = test system: Escherichia coli; assay: Antibacterial activity against Escherichia coli XL1 assessed as bacterial growth inhibition at 150 uM by spectrophotometric method; format: functional; settings: read-out: GI
[19] = test system: Escherichia coli; assay: Antibacterial activity against Escherichia coli XL1 assessed as fold increase in average cell length at 80 uM incubated for 4 hrs in by fluorescent microscopy; format: functional
[20] = molecular target: T1, Cell division protein FtsZ (Escherichia coli K-12); assay: Binding affinity to Escherichia coli BL21 FtsZ assessed as hydrophobic probe ANS-FtsZ complex fluorescence quenching at 2 uM for 30 mins by fluorescence analysis
[21] = molecular target: T1, Cell division protein FtsZ (Escherichia coli K-12); assay: Binding affinity to Escherichia coli BL21 FtsZ assessed as hydrophobic probe ANS-FtsZ complex fluorescence quenching at 40 uM for 30 mins by fluorescence analysis
[22] = test system: HeLa; assay: Antiproliferative activity against human HeLa cells assessed as inhibition of cell proliferation at 200 uM incubated for 24 hrs by sulforhodamine B assay; format: functional; design: scale not given: the % may be the effect or the level left
[23] = molecular target: T3, Tubulin (Homo sapiens); assay: Inhibition of tubulin polymerization in human HeLa cells assessed as effect on interphase microtubule network at 80 to 150 uM for 24 hrs by […] staining based fluorescence microscopy; format: cell-based; settings: dose 80-150 µM
[24] = molecular target: T1, Cell division protein FtsZ (Escherichia coli K-12); assay: Inhibition of KCl-induced Escherichia coli BL21 FtsZ polymerization assessed as decrease in FtsZ polymer size at 80 uM incubate for 1 hrs by […] staining based fluorescence microscopy
[25] = test system: Escherichia coli; assay: Antibacterial activity against Escherichia coli XL1 assessed as bacterial growth inhibition at 10 uM by spectrophotometric method; format: functional; settings: read-out: GI

O=C1c2ccccc2C(=O)c2c(O)c(O)cc(O)c21 [PURPURIN] showed an inhibition [1] of 11.5%, an inhibition [2] of 20% and an inhibition of growth at 5 µM [3] of 47%. For the same compound, the IC50 [4] was 110 µM, the Activity [5] was 25% and the Activity [6] was “Dose-Dependent Effect”. It also gave an inhibition [7] of 21.9%, an Activity [8] of 6% and an IC50 [9] of 5.5 µM. For the same compound, the Activity [10] was 15.1 um, the Activity [11] was 35% and the inhibition of growth at 20 µM [12] was 18.5%. For the same compound, the Activity [13] was 7 um, the MIC [14] was 30 µM (≈ 7.69 µg/mL) and the inhibition [15] was “inactive”. For the same compound, the inhibition [16] was 31%, the Activity [17] was 45% and the inhibition of growth at 150 µM [18] was 47.8%. For the same compound, the “fold change (FC)” value [19] was 4, the Activity [20] was 14% and the Activity [21] was 66%. The Activity [22] was 72%, the inhibition [23] was “inactive” and the inhibition [24] was “Active”. It also gave an inhibition of growth at 10 µM [25] of 12.5%.
